# Test results taken from ChEMBL document CHEMBL3885881, “DrugMatrix”.
# Species: Rattus norvegicus
# Assay: DrugMatrix - Regimen: Daily Repeat
# Format: toxicity, organism-based, Sprague-Dawley
# Parameters: regimen Daily Repeat, gender Male, age 6-8 weeks
# Conditions: in vivo, po, route oral GAVAGE, vehicle .5 % CMC; for ABSOLUTE BASOPHIL / ABSOLUTE EOSINOPHIL / ABSOLUTE LYMPHOCYTE / ABSOLUTE MONOCYTE / ABSOLUTE SEGMENTED NEUTROPHIL / BASOPHIL / EOSINOPHIL / ERYTHROCYTE COUNT / HEMATOCRIT / HEMOGLOBIN / LEUKOCYTE COUNT / LYMPHOCYTE / MEAN CORPUSCULAR HEMOGLOBIN / MEAN CORPUSCULAR HEMOGLOBIN CONCENTRATION / MEAN CORPUSCULAR VOLUME / MONOCYTE / NEUTROPHIL / NUCLEATED RED BLOOD CELLS / PLATELET COUNT: tissue Blood; for ALANINE AMINOTRANSFERASE / ALBUMIN / ALKALINE PHOSPHATASE / ASPARTATE AMINOTRANSFERASE / BLOOD UREA NITROGEN / CARBON DIOXIDE / CHLORIDE / CHOLESTEROL / CREATINE PHOSPHOKINASE / CREATININE / GLUCOSE / LACTATE DEHYDROGENASE / LIPASE / PHOSPHORUS / POTASSIUM / SODIUM / TOTAL BILIRUBIN / TOTAL PROTEIN / URIC ACID: tissue Plasma
# [1] = 50 mg/kg, 120 h, dose level Low, time 5 day
# [2] = 1500 mg/kg, 72 h, dose level High, time 3 day
# [3] = 1500 mg/kg, 120 h, dose level High, time 5 day
compound,measurement,setting,value
CN(C)[C@@H]1C(O)=C(C(N)=O)C(=O)[C@@]2(O)C(O)=C3C(=O)c4c(O)ccc(Cl)c4[C@@](C)(O)[C@H]3C[C@@H]12 [CHLORTETRACYCLINE],ABSOLUTE BASOPHIL,[1],0 CELLS/uL
same,ABSOLUTE EOSINOPHIL,[1],0 CELLS/uL
same,ABSOLUTE LYMPHOCYTE,[1],12641 CELLS/uL
same,ABSOLUTE MONOCYTE,[1],0 CELLS/uL
same,ABSOLUTE SEGMENTED NEUTROPHIL,[1],859 CELLS/uL
same,BASOPHIL,[1],0%
same,EOSINOPHIL,[1],0%
same,ERYTHROCYTE COUNT,[1],5.53 x10E6/uL
same,HEMATOCRIT,[1],33.27%
same,HEMOGLOBIN,[1],13.43 G/DL
same,LEUKOCYTE COUNT,[1],13.5 x10E3/uL
same,LYMPHOCYTE,[1],93.33%
same,MEAN CORPUSCULAR HEMOGLOBIN,[1],24.33 pg
same,MEAN CORPUSCULAR HEMOGLOBIN CONCENTRATION,[1],40.4 G/DL
same,MEAN CORPUSCULAR VOLUME,[1],60.17 fL
same,MONOCYTE,[1],0%
same,NEUTROPHIL,[1],6.67%
same,NUCLEATED RED BLOOD CELLS,[1],0 /100WBC
same,PLATELET COUNT,[1],1240.33 x10E3/uL
same,ALANINE AMINOTRANSFERASE,[1],54 u/L
same,ALBUMIN,[1],4.03 G/DL
same,ALKALINE PHOSPHATASE,[1],291.33 u/L
same,ASPARTATE AMINOTRANSFERASE,[1],84 u/L
same,BLOOD UREA NITROGEN,[1],17.33 mg/dL
same,CARBON DIOXIDE,[1],22.67 mmol/L
same,CHLORIDE,[1],103.33 MEQ/L
same,CHOLESTEROL,[1],58.33 mg/dL
same,CREATINE PHOSPHOKINASE,[1],329.33 u/L
same,CREATININE,[1],0.2 mg/dL
same,GLUCOSE,[1],159.67 mg/dL
same,LACTATE DEHYDROGENASE,[1],155.33 u/L
same,LIPASE,[1],9.33 u/L
same,PHOSPHORUS,[1],12.97 mg/dL
same,POTASSIUM,[1],6.97 MEQ/L
same,SODIUM,[1],144.3 MEQ/L
same,TOTAL BILIRUBIN,[1],0.17 mg/dL
same,TOTAL PROTEIN,[1],5.73 G/DL
same,URIC ACID,[1],2.13 mg/dL
same,ABSOLUTE BASOPHIL,[2],0 CELLS/uL
same,ABSOLUTE EOSINOPHIL,[2],19 CELLS/uL
same,ABSOLUTE LYMPHOCYTE,[2],5616.67 CELLS/uL
same,ABSOLUTE MONOCYTE,[2],262.67 CELLS/uL
same,ABSOLUTE SEGMENTED NEUTROPHIL,[2],601.67 CELLS/uL
same,BASOPHIL,[2],0%
same,EOSINOPHIL,[2],0.33%
same,ERYTHROCYTE COUNT,[2],5.83 x10E6/uL
same,HEMATOCRIT,[2],36%
same,HEMOGLOBIN,[2],14.6 G/DL
same,LEUKOCYTE COUNT,[2],6.5 x10E3/uL
same,LYMPHOCYTE,[2],86%
same,MEAN CORPUSCULAR HEMOGLOBIN,[2],25.13 pg
same,MEAN CORPUSCULAR HEMOGLOBIN CONCENTRATION,[2],40.57 G/DL
same,MEAN CORPUSCULAR VOLUME,[2],61.8 fL
same,MONOCYTE,[2],4%
same,NEUTROPHIL,[2],9.67%
same,NUCLEATED RED BLOOD CELLS,[2],0 /100WBC
same,PLATELET COUNT,[2],1359 x10E3/uL
same,ALANINE AMINOTRANSFERASE,[2],54 u/L
same,ALBUMIN,[2],4.27 G/DL
same,ALKALINE PHOSPHATASE,[2],407 u/L
same,ASPARTATE AMINOTRANSFERASE,[2],99.33 u/L
same,BLOOD UREA NITROGEN,[2],17 mg/dL
same,CARBON DIOXIDE,[2],25 mmol/L
same,CHLORIDE,[2],104.33 MEQ/L
same,CHOLESTEROL,[2],70.33 mg/dL
same,CREATINE PHOSPHOKINASE,[2],633 u/L
same,CREATININE,[2],0.16 mg/dL
same,GLUCOSE,[2],163.67 mg/dL
same,LACTATE DEHYDROGENASE,[2],129.67 u/L
same,LIPASE,[2],9.33 u/L
same,PHOSPHORUS,[2],12.37 mg/dL
same,POTASSIUM,[2],5.95 MEQ/L
same,SODIUM,[2],148.37 MEQ/L
same,TOTAL BILIRUBIN,[2],0.23 mg/dL
same,TOTAL PROTEIN,[2],6 G/DL
same,URIC ACID,[2],1.87 mg/dL
same,ABSOLUTE BASOPHIL,[3],0 CELLS/uL
same,ABSOLUTE EOSINOPHIL,[3],167.33 CELLS/uL
same,ABSOLUTE LYMPHOCYTE,[3],18100 CELLS/uL
same,ABSOLUTE MONOCYTE,[3],0 CELLS/uL
same,ABSOLUTE SEGMENTED NEUTROPHIL,[3],1266 CELLS/uL
same,BASOPHIL,[3],0%
same,EOSINOPHIL,[3],0.67%
same,ERYTHROCYTE COUNT,[3],5.62 x10E6/uL
same,HEMATOCRIT,[3],34.33%
same,HEMOGLOBIN,[3],13.93 G/DL
same,LEUKOCYTE COUNT,[3],19.53 x10E3/uL
same,LYMPHOCYTE,[3],92.67%
same,MEAN CORPUSCULAR HEMOGLOBIN,[3],24.83 pg
same,MEAN CORPUSCULAR HEMOGLOBIN CONCENTRATION,[3],40.6 G/DL
same,MEAN CORPUSCULAR VOLUME,[3],61.17 fL
same,MONOCYTE,[3],0%
same,NEUTROPHIL,[3],6.67%
same,NUCLEATED RED BLOOD CELLS,[3],0.33 /100WBC
same,PLATELET COUNT,[3],1340 x10E3/uL
same,ALANINE AMINOTRANSFERASE,[3],61.33 u/L
same,ALBUMIN,[3],3.73 G/DL
same,ALKALINE PHOSPHATASE,[3],422.33 u/L
same,ASPARTATE AMINOTRANSFERASE,[3],86.33 u/L
same,BLOOD UREA NITROGEN,[3],19.67 mg/dL
same,CARBON DIOXIDE,[3],28.67 mmol/L
same,CHLORIDE,[3],100.67 MEQ/L
same,CHOLESTEROL,[3],57 mg/dL
same,CREATINE PHOSPHOKINASE,[3],301.67 u/L
same,CREATININE,[3],0.19 mg/dL
same,GLUCOSE,[3],151.33 mg/dL
same,LACTATE DEHYDROGENASE,[3],67 u/L
same,LIPASE,[3],10.33 u/L
same,PHOSPHORUS,[3],11.03 mg/dL
same,POTASSIUM,[3],5.95 MEQ/L
same,SODIUM,[3],144.1 MEQ/L
same,TOTAL BILIRUBIN,[3],0.17 mg/dL
same,TOTAL PROTEIN,[3],5.23 G/DL
same,URIC ACID,[3],1.57 mg/dL
